Data taken from patent US20250388602A1 (Genase Therapeutics B.V., priority 2022, published 2025).
Read-outs that look alike come from different tables or passages of the source.

Key:
MOLM-13 cells = assay: MOLM-13 cell viability (Assay B), Cell Titer-Glo; format: cell-based; conditions: Homo sapiens, read-out: IC50 MOLM13 inhibition activity
Procedure, shortened: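 Cells at 1,000 per well in RPMI/10% FBS were exposed to compound (10E-5 to 6E-12 M), with or without 100 μM uridine, for 72 h. Viability was read by CellTiter-Glo luminescence. Duplicates were run, and potency was taken from two independent experiments.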

in vitro [1] = conditions: for HLM % remaining: % remaining at 60 min, 1 μM; for half-life at 1 μM: both, human
Description: Human Liver Microsomal metabolic stability: The microsomal metabolic stability assay utilized pooled human liver microsomes (mixed gender, BD Gentest), with supplemented cofactors NADPH and UDPGA (Solarbio S&T Co., LTD). Two separate experiments were performed as follows: • a) With cofactors (NADPH & UDPGA): 25 μL of 10 mM NADPH and 25 μL of 20 mM UDPGA were added to 197.5 μL of reaction solution (phosphate buffer (final concentration in assay 100 mM), MgCl2 (final concentration in assay (5 mM)), alamethacin (final concentration in assay 0.025 mg/mL) and microsomes (final concentration in assay 0.5 mg/mL). • b) Without cofactors (NADPH & UDPGA): 50 μL of H2O was added to 197.5 μL of reaction solution.
The mixture was pre-warmed at 37° C. for 10 minutes. The reaction was started with the addition of 2.5 μL of 100 μM control compound or test compound solutions. Diclofenac was used as positive control in this study. The final concentration of control compound and test compounds was 1 μM. Aliquots of 25 μL were taken from the reaction solution at 0.5, 5, 15, 30 and 60 minutes. The reaction was stopped by the addition of 5 volumes of cold acetonitrile containing internal standards. Samples were centrifuged at 3,220 g for 40 minutes. An aliquot of 100 μL of the supernatant was mixed with 100 μL of ultra-pure H2O and then used for LC-MS/MS analysis. Peak areas were determined from extracted ion chromatograms. Percent parent remaining was calculated from the area ratio of test compound. The slope value was determined by linear regression of the natural logarithm of percent parent remaining versus incubation time curve.
(§1) Peak areas were determined from extracted ion chromatograms to determine the in vitro half-life (t½) of parent compound by regression analysis of the percent parent disappearance vs. time curve. The in vitro half-life (in vitro t½) was determined from the slope value (in vitro t½=−0.693/k). All calculations were carried out using Microsoft Excel.

in vitro [2] = conditions: for hHEPs % remaining: 1 μM
Description: Human Hepatocyte metabolic stability: Human hepatocytes (X008000, BioIVT) were freshly thawed prior to the incubations with test compound. Hepatocytes were transferred to 50 mL conical tubes and centrifuged 10 min at 100 g. Thawing medium was removed and replaced by preheated (37° C.) incubation medium (William's E Medium supplemented with GlutaMAX), to yield a hepatocyte density ˜1.5×10^6 cells/mL. Cell viability was determined using AO/PI staining and hepatocytes were diluted using incubation medium to a working density of 0.5×10^6 viable cells/mL. 198 μL of hepatocytes were added into each well of a 96-well plate and placed in the incubator to allow the hepatocytes to warm for 10 minutes. 2 μL test compound or positive control was placed into respective wells of the 96-well plate (final concentration test compound 1 μM) to start the reaction. The plate was returned to the incubator and 25 μL aliquots of the well contents were removed at time points of 0, 15, 30, 60, 90 and 120 minutes. The aliquots were mixed with 6 volumes (150 μL) of acetonitrile containing internal standards (100 nM alprazolam, 200 nM caffeine, and 100 nM tolbutamide) to terminate the reaction. The plate was centrifuged for 20 minutes at 3,200 g. Aliquots of 150 μL of the supernatants were used for LC/MS/MS analysis. All incubations were performed in duplicate.
as §1

recombinant human DHODH = recombinant human DHODH (Homo sapiens (Human), UniProt Q02127); assay: DHODH enzyme assay (Assay A), DCIP absorbance; format: biochemical; conditions: bins ≥10 nM-<100 nM and <10 nM; read-out: IC50 DHODH inhibition activity
CYP1A2 = CYP1A2 (Homo sapiens (Human), UniProt P05177); assay: CYP inhibition in pooled human liver microsomes; format: in vitro ADME
Description: (§2) CYP inhibition: Co-incubation of compounds with P450 enzyme-selective substrates was performed using pooled human liver microsomes (Cat. No. H0610, Xenotech), to determine their potential to cause drug-drug interactions. The assay was performed in duplicate. The formation of acetaminophen, 7′-hydoxycoumarin, hydrobupropion, N-desethylamodiaquine, 4′-hydroxydiclofenac, 4′-hydroxymephenytoin, 1′-hydroxybufuralol, 6″-hydroxychlorzoxazone were quantified as markers for CYP1A2, CYP2A6, […], CYP2C8, CYP2C9, CYP2C19, […], CYP2E1, respectively. CYP3A4 inhibition was measured using 2 substrates, measuring the formation of […] (3A4-T), and 1′-hydroxymidazolam (3A4-M). The incubation was carried out in 96 deep well plates each well containing: 179 μL of the master solution (0.2 mg/mL microsomes plus CYP substrate (see below for final substrate concentration and incubation time for the different CYP assays)) in 100 mM phosphate buffer and 1 μL of the compound working solution or vehicle. The final concentrations of the compounds in the assay was 30 μM when using a single dose or 0.1, 0.3, 1, 3, 10 and 30 μM for a dose response.
The incubation plate was placed into a water bath and pre-warmed at 37° C. for 5 minutes before the reactions were started by the addition of 20 μL of 10 mM NADPH solution and incubated at 37° C. for the time listed above. […]

CYP2C9 = CYP2C9 (Homo sapiens (Human), UniProt P11712); assay: biochemical; format: in vitro ADME
Description: as §2
(§3) The incubation plate was placed into a water bath and pre-warmed at 37° C. for 5 minutes before the reactions were started by the addition of 20 μL of 10 mM NADPH solution and incubated at 37° C. for the time listed above. The reaction was stopped by addition of 1.5 volumes (300 μL) of cold ACN containing 3% formic acid and 200 nM tolbutamide, 200 nM aprozolam and 200 nM labalol. The plate was centrifuged at 3,220 g for 50 minutes and then 200 μL of the supernatant was transferred to the analysis plate for LC/MS/MS analysis. The respective metabolite formation from each probe substrate was compared with that observed for the solvent control incubations.

CYP2E1 = CYP2E1 (Homo sapiens (Human), UniProt P05181); assay: biochemical; format: in vitro ADME
Description: as §2, §3

CYP2A6 = CYP2A6 (Homo sapiens (Human), UniProt P11509); assay: biochemical; format: in vitro ADME
Description: as §2, §3

CYP2C19 = CYP2C19 (Homo sapiens (Human), UniProt P33261); assay: biochemical; format: in vitro ADME
Description: as §2, §3

CYP2C8 = CYP2C8 (Homo sapiens (Human), UniProt P10632); assay: biochemical; format: in vitro ADME
Description: as §2, §3

CYP3A4 = CYP3A4 (Homo sapiens (Human), UniProt P08684); assay: biochemical; format: in vitro ADME
Description: as §2, §3

CYP2B6 = CYP2B6 (Homo sapiens (Human), UniProt P20813); assay: biochemical; format: in vitro ADME
Description: as §2, §3

CYP2D6 = CYP2D6 (Homo sapiens (Human), UniProt P10635); assay: biochemical; format: in vitro ADME
Description: as §2, §3

[3] = MOLM-13, 72 hours, bins ≥10 nM-<100 nM and <10 nM

Chain of recombinant human DHODH (Q02127 whole entry): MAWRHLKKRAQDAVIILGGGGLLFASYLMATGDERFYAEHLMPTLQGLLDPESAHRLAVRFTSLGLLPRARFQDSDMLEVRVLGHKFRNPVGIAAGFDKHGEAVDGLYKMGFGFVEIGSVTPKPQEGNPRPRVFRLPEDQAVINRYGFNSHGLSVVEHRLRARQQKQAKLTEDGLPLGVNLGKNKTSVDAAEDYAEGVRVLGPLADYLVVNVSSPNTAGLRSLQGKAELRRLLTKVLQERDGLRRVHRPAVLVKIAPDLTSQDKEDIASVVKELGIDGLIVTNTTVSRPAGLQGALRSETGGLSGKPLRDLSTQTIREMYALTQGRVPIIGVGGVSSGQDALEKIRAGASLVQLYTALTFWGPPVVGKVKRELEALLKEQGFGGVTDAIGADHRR
Chain of CYP3A4 (P08684 whole entry): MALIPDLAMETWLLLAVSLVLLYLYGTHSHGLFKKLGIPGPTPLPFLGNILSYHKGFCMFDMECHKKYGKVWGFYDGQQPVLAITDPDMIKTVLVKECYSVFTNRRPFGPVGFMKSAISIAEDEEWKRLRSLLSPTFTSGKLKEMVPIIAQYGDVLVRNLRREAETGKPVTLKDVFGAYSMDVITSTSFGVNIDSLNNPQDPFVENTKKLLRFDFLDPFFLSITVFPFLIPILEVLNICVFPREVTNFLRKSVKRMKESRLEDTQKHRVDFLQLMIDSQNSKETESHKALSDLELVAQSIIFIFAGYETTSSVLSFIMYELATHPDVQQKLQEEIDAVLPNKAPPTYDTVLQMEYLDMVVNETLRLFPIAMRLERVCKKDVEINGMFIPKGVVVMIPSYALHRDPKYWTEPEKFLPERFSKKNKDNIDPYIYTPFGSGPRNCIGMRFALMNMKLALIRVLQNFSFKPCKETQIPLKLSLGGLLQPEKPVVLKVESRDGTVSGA
Chain of CYP2C8 (P10632 whole entry): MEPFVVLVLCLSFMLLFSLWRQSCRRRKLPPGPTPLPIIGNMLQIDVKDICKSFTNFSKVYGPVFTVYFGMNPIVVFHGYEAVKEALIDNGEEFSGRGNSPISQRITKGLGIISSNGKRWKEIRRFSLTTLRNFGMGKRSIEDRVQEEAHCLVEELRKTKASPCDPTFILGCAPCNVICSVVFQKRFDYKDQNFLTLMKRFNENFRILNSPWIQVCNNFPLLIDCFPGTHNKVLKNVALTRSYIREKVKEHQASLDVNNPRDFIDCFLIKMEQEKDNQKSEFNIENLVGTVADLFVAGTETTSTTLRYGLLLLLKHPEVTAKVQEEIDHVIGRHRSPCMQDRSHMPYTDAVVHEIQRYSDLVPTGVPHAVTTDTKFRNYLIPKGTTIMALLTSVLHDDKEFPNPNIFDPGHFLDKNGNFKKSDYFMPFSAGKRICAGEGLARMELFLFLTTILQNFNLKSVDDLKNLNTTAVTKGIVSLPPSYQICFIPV
Chain of CYP2D6 (P10635 whole entry): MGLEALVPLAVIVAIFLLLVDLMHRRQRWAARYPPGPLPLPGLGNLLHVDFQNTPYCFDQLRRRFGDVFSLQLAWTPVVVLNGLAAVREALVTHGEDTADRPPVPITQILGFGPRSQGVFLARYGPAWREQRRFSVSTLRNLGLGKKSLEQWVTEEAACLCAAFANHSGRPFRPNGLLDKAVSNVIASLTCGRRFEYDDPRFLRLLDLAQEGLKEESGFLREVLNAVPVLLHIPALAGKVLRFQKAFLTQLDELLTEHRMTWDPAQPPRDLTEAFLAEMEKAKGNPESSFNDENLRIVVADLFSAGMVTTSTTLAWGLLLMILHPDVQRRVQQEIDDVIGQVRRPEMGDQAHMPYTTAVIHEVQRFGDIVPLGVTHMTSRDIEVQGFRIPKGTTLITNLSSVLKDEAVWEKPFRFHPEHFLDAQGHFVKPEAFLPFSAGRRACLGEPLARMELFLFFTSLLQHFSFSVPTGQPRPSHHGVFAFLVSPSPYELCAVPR
Chain of CYP2A6 (P11509 whole entry): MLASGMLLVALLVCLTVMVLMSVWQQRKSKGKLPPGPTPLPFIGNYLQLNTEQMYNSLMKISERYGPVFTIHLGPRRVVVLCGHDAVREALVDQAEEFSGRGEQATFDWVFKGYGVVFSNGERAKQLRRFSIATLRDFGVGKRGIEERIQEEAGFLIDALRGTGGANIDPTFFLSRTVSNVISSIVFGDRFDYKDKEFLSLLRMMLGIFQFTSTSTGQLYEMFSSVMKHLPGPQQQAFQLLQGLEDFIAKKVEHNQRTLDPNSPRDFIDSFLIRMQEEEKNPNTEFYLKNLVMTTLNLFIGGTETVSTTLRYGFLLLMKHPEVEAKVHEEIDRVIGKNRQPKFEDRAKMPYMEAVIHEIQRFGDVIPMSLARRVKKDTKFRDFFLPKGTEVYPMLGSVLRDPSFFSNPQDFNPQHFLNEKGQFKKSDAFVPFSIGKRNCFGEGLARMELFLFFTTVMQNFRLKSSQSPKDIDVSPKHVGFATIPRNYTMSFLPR
Chain of CYP2B6 (P20813 whole entry): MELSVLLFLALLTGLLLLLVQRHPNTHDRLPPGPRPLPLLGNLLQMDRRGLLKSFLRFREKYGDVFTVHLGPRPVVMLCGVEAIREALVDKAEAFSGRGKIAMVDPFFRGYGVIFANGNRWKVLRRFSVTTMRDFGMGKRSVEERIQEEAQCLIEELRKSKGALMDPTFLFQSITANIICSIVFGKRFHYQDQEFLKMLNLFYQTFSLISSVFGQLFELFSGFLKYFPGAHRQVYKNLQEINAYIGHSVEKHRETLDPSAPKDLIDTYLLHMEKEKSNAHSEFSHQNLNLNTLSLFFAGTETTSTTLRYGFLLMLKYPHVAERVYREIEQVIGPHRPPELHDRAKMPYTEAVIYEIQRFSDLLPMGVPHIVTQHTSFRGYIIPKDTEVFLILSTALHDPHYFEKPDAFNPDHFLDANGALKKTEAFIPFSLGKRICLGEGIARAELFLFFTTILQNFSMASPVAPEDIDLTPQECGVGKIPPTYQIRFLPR
Chain of CYP2E1 (P05181 whole entry): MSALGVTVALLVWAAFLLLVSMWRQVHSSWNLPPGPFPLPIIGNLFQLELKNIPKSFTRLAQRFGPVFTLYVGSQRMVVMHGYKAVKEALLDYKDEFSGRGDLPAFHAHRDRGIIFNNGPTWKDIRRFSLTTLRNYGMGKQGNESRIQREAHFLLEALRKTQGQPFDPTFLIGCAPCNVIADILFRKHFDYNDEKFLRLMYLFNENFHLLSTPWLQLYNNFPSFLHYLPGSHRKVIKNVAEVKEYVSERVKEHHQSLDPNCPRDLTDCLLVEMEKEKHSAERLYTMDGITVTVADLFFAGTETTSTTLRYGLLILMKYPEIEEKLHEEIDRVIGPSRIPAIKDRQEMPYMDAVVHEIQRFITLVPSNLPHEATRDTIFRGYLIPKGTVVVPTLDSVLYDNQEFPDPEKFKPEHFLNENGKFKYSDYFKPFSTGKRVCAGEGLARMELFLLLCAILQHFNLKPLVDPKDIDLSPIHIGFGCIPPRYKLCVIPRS
Chain of CYP2C19 (P33261 whole entry): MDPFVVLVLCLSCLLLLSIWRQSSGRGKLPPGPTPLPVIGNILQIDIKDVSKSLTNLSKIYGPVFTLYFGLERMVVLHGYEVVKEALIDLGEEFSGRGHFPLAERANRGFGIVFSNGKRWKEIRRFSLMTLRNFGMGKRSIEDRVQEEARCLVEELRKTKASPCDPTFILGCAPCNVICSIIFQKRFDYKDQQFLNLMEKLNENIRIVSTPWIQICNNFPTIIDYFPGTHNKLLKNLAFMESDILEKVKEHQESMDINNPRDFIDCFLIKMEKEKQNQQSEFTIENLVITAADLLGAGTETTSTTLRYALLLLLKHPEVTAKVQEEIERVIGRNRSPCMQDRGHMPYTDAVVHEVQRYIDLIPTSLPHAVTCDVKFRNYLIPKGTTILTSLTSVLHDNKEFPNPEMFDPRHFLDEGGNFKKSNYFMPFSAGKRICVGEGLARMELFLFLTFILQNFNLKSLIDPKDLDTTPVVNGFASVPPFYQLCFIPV
Chain of CYP1A2 (P05177 whole entry): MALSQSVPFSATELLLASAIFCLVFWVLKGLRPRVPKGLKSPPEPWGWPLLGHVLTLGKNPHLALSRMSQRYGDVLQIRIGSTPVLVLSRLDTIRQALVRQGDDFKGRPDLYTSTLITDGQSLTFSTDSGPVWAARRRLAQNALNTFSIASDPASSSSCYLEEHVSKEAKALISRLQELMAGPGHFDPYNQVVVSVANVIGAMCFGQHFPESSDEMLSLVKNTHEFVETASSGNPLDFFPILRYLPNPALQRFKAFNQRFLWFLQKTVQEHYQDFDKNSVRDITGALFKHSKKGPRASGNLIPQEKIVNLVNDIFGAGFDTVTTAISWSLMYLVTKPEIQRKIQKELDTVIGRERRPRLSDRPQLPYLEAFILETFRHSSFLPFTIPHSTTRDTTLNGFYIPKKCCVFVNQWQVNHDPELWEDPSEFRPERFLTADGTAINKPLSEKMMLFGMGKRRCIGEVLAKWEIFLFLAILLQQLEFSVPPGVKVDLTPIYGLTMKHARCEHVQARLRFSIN
Chain of CYP2C9 (P11712 whole entry): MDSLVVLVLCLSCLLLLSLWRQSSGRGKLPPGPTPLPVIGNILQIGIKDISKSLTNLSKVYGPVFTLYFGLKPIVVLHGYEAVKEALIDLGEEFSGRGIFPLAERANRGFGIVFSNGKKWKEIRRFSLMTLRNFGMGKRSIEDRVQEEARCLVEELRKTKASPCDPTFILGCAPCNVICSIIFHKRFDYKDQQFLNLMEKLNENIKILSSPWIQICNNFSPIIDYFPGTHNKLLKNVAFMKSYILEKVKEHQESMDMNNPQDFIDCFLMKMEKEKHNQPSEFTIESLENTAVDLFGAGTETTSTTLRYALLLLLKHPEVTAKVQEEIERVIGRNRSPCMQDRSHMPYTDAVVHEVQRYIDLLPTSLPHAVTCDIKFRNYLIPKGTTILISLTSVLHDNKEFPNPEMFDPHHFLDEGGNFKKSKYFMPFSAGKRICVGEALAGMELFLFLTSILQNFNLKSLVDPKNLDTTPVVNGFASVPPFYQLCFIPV

IC50 (recombinant human DHODH) [µM] | IC50 (MOLM-13 cells; [3]) [µM] | half-life at 1 μM (in vitro [1]; pooled liver microsomes) [h] | hHEPs % remaining (in vitro [2]; human, hepatocytes, 2 h) [%] | Structure (SMILES) | IC50 (MOLM-13 cells; MOLM-13, 72 h) [µM] | HLM % remaining (in vitro [1]) [%] | half-life at 1 μM (in vitro [1]; microsomes) [h] | hHEPs % remaining (in vitro [2]; % remaining at 120 min) | half-life at 1 μM (in vitro [2]; human, hepatocytes) [h] | IC50 (CYP1A2) [µM] | IC50 (CYP2C9) [µM] | IC50 (CYP2E1) [µM] | IC50 (CYP2A6) [µM] | IC50 (CYP2C19) [µM] | IC50 (CYP2C8) [µM] | IC50 (CYP3A4; IC50 CYP3A4-M, substrate Midozolam) [µM] | IC50 (CYP3A4; IC50 CYP3A4-T, substrate Testosterone) [µM] | IC50 (CYP2B6) [µM] | IC50 (CYP2D6) [µM]
0.01 to 0.1 | < 0.01 | 5.93 | – | O=C(N[C@@H]1COCc2c1cnn2-c1ccccc1Cl)c1ncn2c1CCCC2 [Ex-51, (S)—N-(1-(2-chlorophenyl)-1,4,5,7-tetrahydropyrano[3,4-c]pyrazol-4-yl)-5,6,7,8-tetrahydroimidazo[1,5-a]pyridine-1-carboxamide] | – | 85 | – | 100% | > 10 | – | – | – | – | – | – | – | – | – | –
0.01 to 0.1 | 0.01 to 0.1 | 4.75 | 87 | O=C(N[C@@H]1COCc2c1cnn2-c1ccccc1F)c1ncc2n1CCCC2 (single isomer, unassigned) [Ex-6] | – | 85 | – | – | 4.9 | – | – | – | – | – | – | – | – | – | –
< 0.01 | < 0.01 | 2.22 | – | O=C(N[C@@H]1COCc2c1cnn2-c1c(F)cccc1Cl)c1ncc2n1CCCC2 [Ex-47, (S)—N-(1-(2-chloro-6-fluorophenyl)-1,4,5,7-tetrahydropyrano[3,4-c]pyrazol-4-yl)-5,6,7,8-tetrahydroimidazo[1,5-a]pyridine-3-carboxamide] | – | 75 | – | 84% | 9 | – | – | – | – | – | – | – | – | – | –

Structure (SMILES) | IC50 (recombinant human DHODH) [µM] | IC50 (MOLM-13 cells; [3]) [µM] | half-life at 1 μM (in vitro [1]; pooled liver microsomes) [h] | hHEPs % remaining (in vitro [2]; human, hepatocytes, 2 h) [%] | IC50 (MOLM-13 cells; MOLM-13, 72 h) [µM] | HLM % remaining (in vitro [1]) [%] | half-life at 1 μM (in vitro [1]; microsomes) [h] | hHEPs % remaining (in vitro [2]; % remaining at 120 min) | half-life at 1 μM (in vitro [2]; human, hepatocytes) [h] | IC50 (CYP1A2) [µM] | IC50 (CYP2C9) [µM] | IC50 (CYP2E1) [µM] | IC50 (CYP2A6) [µM] | IC50 (CYP2C19) [µM] | IC50 (CYP2C8) [µM] | IC50 (CYP3A4; IC50 CYP3A4-M, substrate Midozolam) [µM] | IC50 (CYP3A4; IC50 CYP3A4-T, substrate Testosterone) [µM] | IC50 (CYP2B6) [µM] | IC50 (CYP2D6) [µM]
CC(C)OC(=O)c1cccc(-n2ncc3c2COC[C@H]3NC(=O)c2ncn3c2CCCC3)c1Cl [Ex-69, Isopropyl (S)-2-chloro-3-(4-(5,6,7,8-tetrahydroimidazo[1,5-a]pyridine-1-carboxamido)-4,7-dihydropyrano[3,4-c]pyrazol-1(5H)-yl)benzoate] | < 0.01 | – | – | – | < 0.01 | 0.14 | 0.122 | BLOD@ | 0.0767 | – | – | – | – | – | – | – | – | – | –
COc1ccc(F)c(-n2ncc3c2CCC[C@H]3NC(=O)c2ncn3c2CCCC3)c1Cl [Compound C, reference compound] | – | – | 1.7 | – | – | 69 | – | 100% | > 10 | > 30 | 9.2 | > 30 | > 30 | 18 | > 30 | 16 | > 30 | > 30 | > 30
Cc1cccc(Cl)c1-n1ncc2c1COC[C@H]2NC(=O)c1ncn2c1CCCC2 [Ex-34, (S)—N-(1-(2-chloro-6-methylphenyl)-1,4,5,7-tetrahydropyrano[3,4-c]pyrazol-4-yl)-5,6,7,8-tetrahydroimidazo[1,5-a]pyridine-1-carboxamide] | < 0.01 | – | – | – | < 0.01 | 100 | 5.62 | 100% | > 10 | – | – | – | – | – | – | – | – | – | –
